From article PMC3534870 (Bioorganic & medicinal chemistry letters, 2012)
Blank lines part the entries; values can stand above or below the compound they belong to.

Tests used:
Solubility = type: physicochemical; details: 20hr
FXR = biological target: T1, FXR (Homo sapiens, UniProt Q96RI1); test: Gal4 DBD-NR LBD cotransfection assay, FXR; type: cell-based; details: data not shown
T1 sequence (Q96RI1 262-486 limits assumed): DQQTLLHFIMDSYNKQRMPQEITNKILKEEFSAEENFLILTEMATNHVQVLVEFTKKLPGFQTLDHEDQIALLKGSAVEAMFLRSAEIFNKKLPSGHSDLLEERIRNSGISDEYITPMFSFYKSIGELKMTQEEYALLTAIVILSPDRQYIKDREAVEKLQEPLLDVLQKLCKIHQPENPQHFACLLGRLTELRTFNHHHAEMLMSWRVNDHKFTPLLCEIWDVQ

p450 2C9 = p450 2C9 (Homo sapiens, UniProt P11712); test: p450 inhibition 2C9; type: in vitro ADME; details: 10 µM drug
p450 2C9, sequence (P11712 whole entry, the tested form may be a part): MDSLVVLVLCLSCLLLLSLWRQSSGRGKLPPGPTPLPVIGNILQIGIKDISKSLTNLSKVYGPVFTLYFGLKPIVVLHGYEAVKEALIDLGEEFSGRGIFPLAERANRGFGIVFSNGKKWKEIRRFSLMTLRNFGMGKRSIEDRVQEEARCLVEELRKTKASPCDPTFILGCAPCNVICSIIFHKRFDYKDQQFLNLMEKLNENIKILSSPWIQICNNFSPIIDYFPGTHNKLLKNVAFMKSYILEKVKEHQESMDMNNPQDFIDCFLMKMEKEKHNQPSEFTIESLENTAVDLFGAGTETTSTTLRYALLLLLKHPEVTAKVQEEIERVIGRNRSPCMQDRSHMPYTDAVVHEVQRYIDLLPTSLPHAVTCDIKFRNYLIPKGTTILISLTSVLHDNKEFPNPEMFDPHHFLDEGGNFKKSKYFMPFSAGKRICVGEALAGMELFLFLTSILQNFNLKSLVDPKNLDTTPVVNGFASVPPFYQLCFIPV

RORα = biological target: T2, RORα (Homo sapiens, UniProt P35398); test: Gal4 DBD-NR LBD cotransfection assay, RORα; type: cell-based; details: data not shown
T2 sequence (P35398 272-510 limits assumed): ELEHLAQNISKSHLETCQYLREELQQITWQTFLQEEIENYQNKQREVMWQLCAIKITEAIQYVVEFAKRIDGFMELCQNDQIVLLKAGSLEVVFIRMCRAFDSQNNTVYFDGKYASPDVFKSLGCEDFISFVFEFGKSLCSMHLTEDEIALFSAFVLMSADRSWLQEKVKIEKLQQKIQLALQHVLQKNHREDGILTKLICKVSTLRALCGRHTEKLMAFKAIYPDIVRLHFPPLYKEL

[1] = CNS exposure: plasma and brain levels in mice; details: t = 6h
LXRα = biological target: T3, LXRα (Homo sapiens, UniProt Q13133); test: Gal4 DBD-NR LBD cotransfection assay, LXRα; type: cell-based; details: data not shown
T3 sequence (Q13133 209-447 limits assumed): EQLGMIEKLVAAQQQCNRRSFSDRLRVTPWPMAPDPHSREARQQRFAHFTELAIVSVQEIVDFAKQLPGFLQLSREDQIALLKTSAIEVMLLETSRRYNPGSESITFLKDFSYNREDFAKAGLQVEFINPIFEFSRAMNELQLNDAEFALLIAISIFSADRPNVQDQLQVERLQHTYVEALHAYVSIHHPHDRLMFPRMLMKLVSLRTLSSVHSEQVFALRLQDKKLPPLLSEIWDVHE

p450 3A4 = p450 3A4 (Homo sapiens, UniProt P08684); test: p450 inhibition 3A4; type: in vitro ADME; details: 10 µM drug
p450 3A4, sequence (P08684 whole entry): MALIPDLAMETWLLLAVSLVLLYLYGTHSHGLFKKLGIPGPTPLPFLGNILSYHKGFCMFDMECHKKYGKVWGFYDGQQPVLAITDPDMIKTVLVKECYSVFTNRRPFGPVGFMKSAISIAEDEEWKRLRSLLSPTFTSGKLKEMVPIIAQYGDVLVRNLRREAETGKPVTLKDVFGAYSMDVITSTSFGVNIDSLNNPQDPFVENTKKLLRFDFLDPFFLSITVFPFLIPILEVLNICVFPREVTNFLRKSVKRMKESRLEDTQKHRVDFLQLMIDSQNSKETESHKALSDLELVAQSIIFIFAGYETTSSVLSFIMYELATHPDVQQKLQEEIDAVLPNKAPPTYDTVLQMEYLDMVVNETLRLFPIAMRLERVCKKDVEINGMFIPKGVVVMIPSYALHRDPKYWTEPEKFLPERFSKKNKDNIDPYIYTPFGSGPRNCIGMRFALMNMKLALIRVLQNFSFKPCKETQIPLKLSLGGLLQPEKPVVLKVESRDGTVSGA

GST-RORγ = biological target: T4, GST-RORγ (Homo sapiens, UniProt P51449); test: Radioligand binding; details: versus 6p
T4 sequence (P51449 269-508 limits assumed): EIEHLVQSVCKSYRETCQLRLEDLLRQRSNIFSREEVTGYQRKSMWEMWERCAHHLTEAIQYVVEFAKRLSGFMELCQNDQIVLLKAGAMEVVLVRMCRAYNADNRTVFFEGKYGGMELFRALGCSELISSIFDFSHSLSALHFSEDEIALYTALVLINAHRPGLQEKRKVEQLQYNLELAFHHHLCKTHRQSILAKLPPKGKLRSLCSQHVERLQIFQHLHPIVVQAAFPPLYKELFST

SMILES: COc1cc(O)c(C(CC(=O)N2CC(C)CC(C)C2)c2ccc3c(c2)OCO3)c(OC)c1 (centres unmarked) [Compound 1]
Solubility pH 7.4 (Solubility; 100 µM solution shaken in PBS pH 7.4, room temperature): low to modest
Solubility pH 5.0 (Solubility; 100 µM solution shaken in Sodium Citrate Buffer pH 5.0, room temperature): low to modest
activity on FXR (FXR): did not show any activity
p450 % inhibition 2C9 (p450 2C9): high
activity on RORα (RORα): did not show any activity
[Plasma] ([1]; 10 mg/kg IP in 10:10:80 DMSO:Tween:water): limited
b.p. (%) brain penetration ([1]; 10 mg/kg IP): good
activity on LXRα (LXRα): did not show any activity
p450 % inhibition 3A4 (p450 3A4): high

SMILES: COc1ccc(C(CC(=O)N2CCOCC2)c2c(O)cc(OC)cc2OC)cc1 (centres unmarked) [Compound 6l]
RORγ activity in words (binding assay) (GST-RORγ): loss of activity

SMILES: COc1ccc(C(CC(=O)N2CCCCC2)c2c(O)cc(OC)cc2OC)cc1 (centres unmarked) [Compound 6m]
RORγ activity in words (binding assay) (GST-RORγ): loss of activity

Other lines, results leading:

RORγ activity in words (binding assay) (GST-RORγ): loss of activity
SMILES: COc1ccc(C(CC(=O)NCc2ccccc2)c2c(O)cc(OC)cc2OC)cc1 (centres unmarked) [Compound 6k]

RORγ activity in words (binding assay) (GST-RORγ): loss of activity
SMILES: COc1ccc(C(CC(=O)NC2CCCC2)c2c(O)cc(OC)cc2OC)cc1 (centres unmarked) [Compound 6n]

RORγ activity in words (binding assay) (GST-RORγ): loss of activity
SMILES: COc1ccc(C(CC(=O)N2CCCC2)c2c(O)cc(OC)cc2OC)cc1 (centres unmarked) [Compound 6o]
